Measurements reported in USRE50230E1, “Method of treatment of hypoxia inducible factor (HIF)-related conditions” (GRIFOLS WORLDWIDE OPERATIONS LIMITED, priority 2014, dated 2024).

Legend:
[1] = system: cortical epithelial (HRCE) cells; test: Cell Titer Glow viability assay, HRCE cells; format: cell-based, human; conditions: 48 hours
Procedure: (§1) Considering the anticipated safety profile of a human plasma protein, toxicity of DFO and transferrins (majority Apo, majority Holo and mixtures) was assessed in primary human kidney cells. The renal proximal tubule epithelial (RPTEC) or cortical epithelial (HRCE) cells were treated with the indicated concentrations of majority ApoTf or DFO for 48 hours (FIG. 11A); and RPTEC or HRCE cells were treated for 72 hrs with 4 mg/mL of majority ApoTf, majority HoloTf, mixtures of transferrin (FIG. 11B). After 48 or 72 hours, cells were subjected to a Cell Titer Glow viability assay. Control cells, untreated cells, were set to a value of 100% viable. The average viability and standard deviations are shown for each treatment condition.

[2] = system: renal proximal tubule epithelial (RPTEC) cells; test: Cell Titer Glow viability assay, RPTEC cells; format: cell-based, human; conditions: 48 hours
Procedure: as §1

HIF1alpha protein = HIF1alpha protein levels by ELISA in SH-SY5Y cells; format: cell-based, human
Procedure: Human neuroblastoma SH-SY5Y cell line cells, cultured in serum free media were treated with plasma derived ApoTf and HoloTf (in both cases at a concentration of 1 mg/mL and 4 mg/mL) for 6 hours under normoxia (21% oxygen) and hypoxia conditions (1% oxygen). […] After 6 hrs intracellular proteins were harvested and tested for HIF1alpha protein levels by ELISA.
Experiment performed in example 1 was repeated but performing treatments for 24 hours and only under normoxic conditions. After 24 hrs intracellular proteins were harvested and tested for HIF1 alpha protein levels by ELISA.
After 6 hrs, intracellular proteins were harvested and tested for HIF1 alpha protein levels by ELISA.
To determine whether Apotransferrin increases the potency of the iron chelator, DFO, and the phd2 inhibitor IOX2; SH-SY5Y neuronal cells cultured in serum free media were treated with 4 mg/mL of the indicated proteins in the presence or absence of small molecule drug under normal oxygen levels. The data shown in FIG. 8A relates to treatment of cells with a combination of DFO or IOX2, at the indicated concentrations, plus 4 mg/mL protein. CoCl2 was used as an experimental positive control. The data shown in FIG. 8B relates to treatment of cells with a combination of 10 uM M30 plus/minus 4 mg/mL protein. The data shown in FIG. 8C relates to treatment of cells with a combination of 200 uM DFO plus/minus 4 mg/mL protein. After 6 hrs intracellular proteins were harvested and tested for HIF1 alpha protein levels by ELISA. Data are shown in pg/mL with standard deviation.

VEGF = VEGF mRNA expression by qPCR in SH-SY5Y cells; format: cell-based, human
Procedure: (§2) The stabilization of, and increase in, HIF-1α protein typically leads to an up-regulation of HIF-related genes (increase in the transcription of genes targeted by HIF), i.e. genes that have HIF binding sites in their transcriptional regulatory elements. Two well characterized genes that are activated by HIF-1α protein are Glut1 receptor and VEGF. Therefore, in order to analyze mRNA expression changes in each of these HIF target genes SH-SY5Y cell line cells were cultured and treated with majority ApoTf or majority HoloTf at a concentration of 1 mg/mL and 4 mg/mL under normoxic (21% oxygen) or hypoxic (1% oxygen) conditions for 6 hours. As a negative controls, cells were treated with HSA (1 mg/mL or 4 mg/mL) or were left untreated. After 6 hrs, intracellular mRNA was harvested and tested for Glut1 and VEGF expression levels by qPCR. Expression results were calculated relative to the expression of the corresponding transcript seen in untreated cells. FIGS. 4A and 4B show the expression results obtained for Glut1 receptor and VEGF, respectively. Values in the figures are shown as Relative Gene Expression, with the target gene (Glut1 or VEGF) normalized for housekeeper (beta-actin) expression.
(§3) In addition, mRNA expression levels of Glut1 and VEGF in response to majority Apotransferrin and DFO or IOX2 combinations were determined. […] Where indicated, either 200 uM DFO or 1 uM IOX2 were co-treated with the HSA and majority Apotransferrin. After 6 hr treatments, intracellular mRNA was harvested and tested for Glut1 and VEGF expression levels by qPCR. Values are shown as Relative Gene Expression, with the target gene (Glut1 or VEGF) normalized for housekeeper (beta-actin) expression. Standard deviations are shown.

HIF1 alpha protein [3] = test: HIF1 alpha protein levels by ELISA in HRCE cells; format: cell-based, human; conditions: 4 mg/mL, 6 hrs, normal oxygen
From the text: (§4) It is well-known in the art that many small molecules used for the treatment of conditions related or provoked by hypoxia are toxic and have numerous side effects, e.g. DFO. One of the most apparent side effects of said small molecules is kidney toxicity. Therefore, in order to assess whether transferrin and/or mixtures increase HIF1 alpha levels in primary kidney cells; human primary kidney cells, both primary human renal proximal tubule epithelial (RPTEC) or cortical epithelial cells (HRCE) were obtained. Primary human renal proximal tubule epithelial (RPTEC) or primary cortical epithelial (HRCE) cells cultured in serum free media were treated with 4 mg/mL majority Apo-transferrin, majority Holo-transferrin or various mixtures of each for 6 hrs under normal oxygen levels. After 6 hrs intracellular proteins were harvested and tested for HIF1 alpha protein levels by ELISA. FIGS. 10A and 10B reveal that HIF1 alpha levels are induced with transferrin composed of mixtures of Apo-transferrin and Holo-transferrin in RPTEC and HRCE, respectively.

[4] = Modified Bederson and General Behavioral scores in rats; format: in vivo, rat; conditions: rats intravenously treated
Procedure: In vivo neurological function was assessed by a modified Bederson score (Bederson et al., 1986b; Crumrine et al., 2011) using the following definitions:
Score 0: No apparent neurological deficits;
Score 1: Body torsion present;
Score 2: Body torsion with right side weakness;
Score 3: Body torsion, right side weakness with circling behavior; and
Score 4: Seizure Activity.
General behavioral scores of rats were developed by the CALS personnel for the purpose of monitoring recovery of animals following surgical procedures (standard CALS post-operative care). A numerical value was assigned to the predetermined behavioral observations.
Score 0: Behavior consistent with a normal naïve rat (i.e. no ipsilateral deficit);
Score 1: Bright/active/responsive; the rat spontaneously moves and explores his cage, responds to external stimuli, explores the top of the cage;
Score 2: Quiet/alert/responsive; reserved behavior but will respond to external stimulus, tends not to rear or explore the top of the cage;
Score 3: Depressed behavior: tends not to move unless prodded, quickly returns to a somnolent state, little to no interest in external stimuli;
Score 4: Unresponsive: remains in a prostrate position even when prodded; and Score 5: Seizure activity requiring euthanasia.

SH-SY5Y cells [5] = test: Protection from oligomerized Abeta 1-42 toxicity, ApoGlo caspase 3/7 activation assay; format: cell-based, human; conditions: for inherent toxicity: 4 mg/mL; for protection from Abeta induced toxicity (caspase 3/7 induction): 4 mg/mL for 24 hrs, then oligomerized Abeta1-42 for 72 hours
From the text: Upregulation of the HIF pathway is known to play a protective role in a number of neurodegenerative diseases, including pathologies that result in destruction of nerve cells and neurons. Such neurodegenerative diseases include Alzheimer's disease, Parkinson's disease, Huntington's disease, and Amylotrophic Lateral Sclerosis. Since treatment of SH-SY5Y upregulates HIF, treatment of cells with Apo- or Holo-transferrin should provide a protective effect on cells subjected to substances known to induce neurodegeneration. FIG. 7 highlights data assessing whether majorities of Apo- and Holo-transferrin could protect SH-SY5Y cells from the toxic effects of the known neurodegenerative toxin oligomerized Abeta 1-42 peptide (FIG. 7). SH-SY5Y neuronal cells cultured in growth media were treated with 4 mg/mL Apo-transferrin or Holo-transferrin for 24 hrs under normal oxygen levels. After 24 hrs, cells were treated with oligomerized Abeta1-42 peptide for an additional 72 hours. Following treatment with oligomerized Abeta1-42, cells were subjected to a ApoGlo caspase 3/7 activation assay. Control cells, untreated cells, were set to a normalized value of 1. The average caspase induction, relative to control cells, and standard deviations are shown for each treatment condition.

Glut1 = Glut1 mRNA expression by qPCR in SH-SY5Y cells; format: cell-based, human
Procedure: as §2, §3

HIF1 alpha protein [6] = test: HIF1 alpha protein levels by ELISA in RPTEC cells; format: cell-based, human; conditions: 4 mg/mL, 6 hrs, normal oxygen
From the text: as §4

SH-SY5Y cells [7] = test: Cell Titer Glow viability assay, SH-SY5Y cells; format: cell-based, human; conditions: 4 mg/mL, 72 hours
Procedure: Since it has been reported that HoloTf is toxic to cells in vivo and in vitro, toxicity of various compositions containing majority ApoTf, majority HoloTf or mixtures of ApoTf+HoloTf was tested in SH-SY5Y cells. SH-SY5Y cells were treated with the indicated concentrations of 4 mg/mL Tf (as indicated in FIG. 5A), M30 or DFO for 72 hours. After 72 hours, cells were subjected to a Cell Titer Glow viability assay. Control cells, untreated cells, were set to a value of 100% viable. The average viability and standard deviations are shown for each treatment condition.

[8] = system: primary human hepatocytes; test: Cell Titer Glow viability assay, primary human hepatocytes; format: cell-based; conditions: 4 mg/mL, 72 hours
Procedure: (§5) Given the anticipated safety profile of a human plasma protein, toxicity of transferrins (majority Apo, majority Holo and pd-transferrin) in NCI-H1650 and primary human hepatocyte cells was assessed. The human lung cell line, NCI-H1650, and primary human hepatocytes were treated for 72 hours with 4 mg/mL of majority ApoTf, majority HoloTf, or pd-transferrin. After 72 hours, cells were subjected to a Cell Titer Glow viability assay. Control cells, untreated cells, were set to a value of 100% viable. The average viability and standard deviations are shown in FIGS. 14A and 14B for each treatment condition.

[9] = MCAo (Middle Cerebral Artery occlusion) rat model of brain stroke, infarct volume; format: in vivo; conditions: 385 mg/kg, IV, transient MCAo rat
NCI-H1650 = test: Cell Titer Glow viability assay, NCI-H1650; format: cell-based, human; conditions: 4 mg/mL, 72 hours
Procedure: as §5

[10] = 1 mg/mL, 6 hours, hypoxia (1% oxygen), SH-SY5Y
[11] = 1 mg/mL, 6 hours, normoxia (21% oxygen), SH-SY5Y
[12] = 1 mg/mL, 24 hours, normoxic, SH-SY5Y
[13] = 4 mg/mL, 6 hours, hypoxia (1% oxygen), SH-SY5Y
[14] = 4 mg/mL, 6 hours, normoxia (21% oxygen), SH-SY5Y
[15] = 4 mg/mL, 24 hours, normoxic, SH-SY5Y
[16] = 6 hours, normoxic, SH-SY5Y (FIG. 3)
[17] = 4 mg/mL, co-treated with 200 uM DFO or 1 uM IOX2, 6 hr, normal oxygen
[18] = hypoxic (1% oxygen), 6 hours, 1 mg/mL and 4 mg/mL
[19] = normoxic (21% oxygen), 6 hours, 1 mg/mL and 4 mg/mL

Compound: CC(=O)N(O)CCCCCNC(=O)CCC(=O)N(O)CCCCCNC(=O)CCC(=O)N(O)CCCCCN [DFO, deferoxamine, reference compound]
- toxicity (cell viability) [1]: significant toxicity
- toxicity (cell viability) [2]: significant toxicity

Compound: majority ApoTf: plasma derived transferrin composition, majority iron-free apo-transferrin (98% ApoTf, 2% HoloTf)
- HIF-1α cellular protein levels (HIF1alpha protein; [10]): significant increase
- HIF-1α cellular protein levels (HIF1alpha protein; [11]): significant increase
- HIF-1α cellular protein levels (HIF1alpha protein; [12]): increased
- effect on HIF1 alpha protein levels in combination with M30 (HIF1alpha protein; 4 mg/mL protein plus 10 uM M30, 6 hrs, normal oxygen, SH-SY5Y): synergistic effects
- effect on HIF1 alpha protein levels in combination with DFO (HIF1alpha protein; 4 mg/mL protein plus 200 uM DFO, 6 hrs, normal oxygen, SH-SY5Y): synergistic effects
- HIF-1α cellular protein levels (HIF1alpha protein; [13]): significant increase
- HIF-1α cellular protein levels (HIF1alpha protein; [14]): significant increase
- HIF-1α cellular protein levels (HIF1alpha protein; [15]): increased
- HIF-1α cellular protein levels (HIF1alpha protein; [16]): increase
- VEGF mRNA levels in combination with small molecule activators of the HIF pathway (VEGF; [17]): increase synergistically and additively
- VEGF mRNA expression relative to HSA controls (VEGF; [18]): significantly increased
- HIF1 alpha levels (HIF1 alpha protein [3]): Induce
- modified Bederson and General Behavioral scores [4]: neither compositions of majority ApoTf nor majority HoloTf showed significant differences
- inherent toxicity (SH-SY5Y cells [5]): lack of inherent toxicity
- protection from Abeta induced toxicity (caspase 3/7 induction) (SH-SY5Y cells [5]): protect SH-SY5Y cells from Abeta induced toxicity
- Glut1 mRNA levels in combination with small molecule activators of the HIF pathway (Glut1; [17]): increase synergistically and additively
- Glut1 mRNA expression relative to HSA controls (Glut1; [18]): significantly increased
- HIF1 alpha levels (HIF1 alpha protein [6]): Induce
- toxicity (cell viability) (SH-SY5Y cells [7]): No toxic effects
- toxicity (cell viability) [8]: no toxicity
- toxicity (cell viability) [1]: none of the transferrin molecules showed any detrimental effects
- volume of the infarcted area vs saline control [9]: significant decrease
- toxicity (cell viability) [2]: none of the transferrin molecules showed any detrimental effects
- toxicity (cell viability) (NCI-H1650): no toxicity

Compound: majority HoloTf: plasma derived transferrin composition, majority diferric holo-transferrin (30% ApoTf, 70% HoloTf)
- HIF-1α cellular protein levels (HIF1alpha protein; [10]): significant increase
- HIF-1α cellular protein levels (HIF1alpha protein; [11]): significant increase
- HIF-1α cellular protein levels (HIF1alpha protein; [12]): tendency towards an increase
- HIF-1α cellular protein levels (HIF1alpha protein; [13]): tendency towards an increase
- HIF-1α cellular protein levels (HIF1alpha protein; [14]): significant increase
- HIF-1α cellular protein levels (HIF1alpha protein; [15]): significant increase
- HIF-1α cellular protein levels (HIF1alpha protein; [16]): increase
- VEGF mRNA expression (VEGF; [19]): increased expression of only Glut1
- HIF1 alpha levels (HIF1 alpha protein [3]): Induce
- modified Bederson and General Behavioral scores [4]: no detrimental effects
- inherent toxicity (SH-SY5Y cells [5]): lack of inherent toxicity
- protection from Abeta induced toxicity (caspase 3/7 induction) (SH-SY5Y cells [5]): protect SH-SY5Y cells from Abeta induced toxicity
- Glut1 mRNA expression (Glut1; [19]): increased expression
- HIF1 alpha levels (HIF1 alpha protein [6]): Induce
- toxicity (cell viability) (SH-SY5Y cells [7]): no toxicity or detrimental effects
- toxicity (cell viability) [8]: no toxicity
- toxicity (cell viability) (NCI-H1650): no toxicity
